The values below are quoted from earlier work in patent US20240180165A1, “ACTIVATION OF BIONEMATICIDE AND PLANT GROWTH PROMOTING FUNCTIONS IN A BIOTECHNOLOGICAL SOLUTION COMPRISING TWO OR MORE BACILLUS SPECIES AND ALLICIN; INDUSTRIAL PROCESS AND APPLICATION THEREOF” (TOTAL BIOTECNOLOGIA INDÚSTRIA E COMÉRICO S/A, priority 2021, published 2024).

The data set deals with Gram-negative and Gram-positive bacteria, including the Bacillus genus. The following applies: even at low concentrations (UM).

Regarding `C=CCS[S+]([O-])CC=C` (stereo not shown) [allicin], the antimicrobial activity result was “broad antimicrobial activity”.
